Results taken from ChEMBL document CHEMBL3352326, “Synthesis of 2,3-di- and 2,2,3-trisubstituted-3-methoxycarbonyl-γ-butyrolactones as potent antitumor agents” (Eur J Med Chem, 2015).
Calls of active or inactive are those of the source. The calls are words filed in the database; no cut-off is given here.

Experiments:
[1] = test system: HL-60; experiment: Induction of apoptosis in human HL60 cells assessed as dead cells level at 2 uM annexin V-PE and 7-AAD staining based by flow cytometry (reference value: 0.4%); type: functional
[2] = test system: HL-60; experiment: Induction of cell cycle arrest in human HL60 cells assessed as accumulation at G2/M phase at 10 uM after 48 hrs by propidium iodide staining based flow cytometry (reference value: 11.6%); type: functional
[3] = test system: HL-60; experiment: Induction of necrosis in human HL60 cells assessed as total LDH activity at 2 to 10 uM; type: functional, cell-based
[4] = test system: HL-60; experiment: Induction of apoptosis in human HL60 cells assessed as early apoptotic cells level at 2 uM annexin V-PE and 7-AAD staining based by flow cytometry (reference value: 18.5%); type: functional
[5] = test system: HL-60; experiment: Induction of apoptosis in human HL60 cells assessed as intact cells level at 10 uM annexin V-PE and 7-AAD staining based by flow cytometry (reference value: 80.7%); type: functional
[6] = test system: HL-60; experiment: Induction of apoptosis in human HL60 cells assessed as late apoptosis cells level at 5 uM annexin V-PE and 7-AAD staining based by flow cytometry (reference value: 0.4%); type: functional
[7] = test system: HL-60; experiment: Induction of apoptosis in human HL60 cells assessed as intact cells level at 2 uM annexin V-PE and 7-AAD staining based by flow cytometry (reference value: 80.7%); type: functional
[8] = test system: HL-60; experiment: Induction of cell cycle arrest in human HL60 cells assessed as accumulation at G0/G1 phase at 2 uM after 48 hrs by propidium iodide staining based flow cytometry (reference value: 42.9%); type: functional
[9] = test system: HL-60; experiment: Induction of apoptosis in human HL60 cells assessed as early apoptotic cells level at 5 uM annexin V-PE and 7-AAD staining based by flow cytometry (reference value: 18.5%); type: functional
[10] = test system: HL-60; experiment: Induction of cell cycle arrest in human HL60 cells assessed as accumulation at G2/M phase at 2 uM after 48 hrs by propidium iodide staining based flow cytometry (reference value: 11.6%); type: functional
[11] = test system: HL-60; experiment: Induction of apoptosis in human HL60 cells assessed as dead cells level at 10 uM annexin V-PE and 7-AAD staining based by flow cytometry (reference value: 0.4%); type: functional
[12] = test system: HL-60; experiment: Induction of cell cycle arrest in human HL60 cells assessed as accumulation at G0/G1 phase at 10 uM after 48 hrs by propidium iodide staining based flow cytometry (reference value: 42.9%); type: functional
[13] = test system: HL-60; experiment: Induction of apoptosis in human HL60 cells assessed as early apoptotic cells level at 10 uM annexin V-PE and 7-AAD staining based by flow cytometry (reference value: 18.5%); type: functional
[14] = test system: HL-60; experiment: Induction of apoptosis in human HL60 cells assessed as dead cells level at 5 uM annexin V-PE and 7-AAD staining based by flow cytometry (reference value: 0.4%); type: functional
[15] = test system: HL-60; experiment: Induction of apoptosis in human HL60 cells assessed as intact cells level at 5 uM annexin V-PE and 7-AAD staining based by flow cytometry (reference value: 80.7%); type: functional
[16] = test system: HL-60; experiment: Induction of cell cycle arrest in human HL60 cells assessed as accumulation at S phase at 2 uM after 48 hrs by propidium iodide staining based flow cytometry (reference value: 45%); type: functional
[17] = Growth inhibition of human HL60 cells at 10 uM after 72 hrs by MTS assay; type: functional; conditions: HL-60, 72 h, read-out: GI
[18] = test system: HL-60; experiment: Induction of apoptosis in human HL60 cells assessed as caspase-3 activation at 5 uM after 24 to 48 hrs by DEVD-AMC substrate based fluorescence assay; type: functional, cell-based
[19] = test system: HL-60; experiment: Induction of apoptosis in human HL60 cells assessed as late apoptosis cells level at 2 uM annexin V-PE and 7-AAD staining based by flow cytometry (reference value: 0.4%); type: functional
[20] = Growth inhibition of human PC3 cells at 10 uM after 72 hrs by MTS assay; type: functional; conditions: PC-3, 72 h, read-out: GI
[21] = test system: HL-60; experiment: Induction of apoptosis in human HL60 cells assessed as late apoptosis cells level at 10 uM annexin V-PE and 7-AAD staining based by flow cytometry (reference value: 0.4%); type: functional
[22] = test system: MCF7; experiment: Growth inhibition of human MCF7 cells at 10 uM after 72 hrs by MTS assay; type: functional; conditions: MCF7, 72 h, read-out: GI
[23] = test system: HL-60; experiment: Induction of necrosis in intact human HL60 cells assessed as cytosolic LDH release at 2 to 10 uM; type: functional, cell-based
[24] = Growth inhibition of human HCT116 cells at 10 uM after 72 hrs by MTS assay; type: functional; conditions: HCT-116, 72 h, read-out: GI
[25] = test system: HL-60; experiment: Induction of cell cycle arrest in human HL60 cells assessed as accumulation at subG1 phase at 5 uM after 48 hrs by propidium iodide staining based flow cytometry (reference value: 0.5%); type: functional
[26] = test system: HL-60; experiment: Induction of cell cycle arrest in human HL60 cells assessed as accumulation at subG1 phase at 10 uM after 48 hrs by propidium iodide staining based flow cytometry (reference value: 0.5%); type: functional
[27] = Growth inhibition of drug resistant human HL60 cells at 10 uM after 72 hrs by MTS assay; type: functional; conditions: HL-60, 72 h, read-out: GI
[28] = Growth inhibition of human MCF7/R cells at 10 uM after 72 hrs by MTS assay; type: functional; conditions: MCF7R, read-out: GI
[29] = test system: HL-60; experiment: Induction of cell cycle arrest in human HL60 cells assessed as accumulation at G2/M phase at 5 uM after 48 hrs by propidium iodide staining based flow cytometry (reference value: 11.6%); type: functional
[30] = test system: SK-OV-3; experiment: Growth inhibition of human SKOV3 cells at 10 uM after 72 hrs by MTS assay; type: functional; conditions: SK-OV-3, 72 h, read-out: GI
[31] = test system: HL-60; experiment: Induction of cell cycle arrest in human HL60 cells assessed as accumulation at subG1 phase at 2 uM after 48 hrs by propidium iodide staining based flow cytometry (reference value: 0.5%); type: functional
[32] = test system: HL-60; experiment: Induction of cell cycle arrest in human HL60 cells assessed as accumulation at S phase at 5 uM after 48 hrs by propidium iodide staining based flow cytometry (reference value: 45%); type: functional
[33] = test system: KB; experiment: Growth inhibition of human KB cells at 10 uM after 72 hrs by MTS assay; type: functional; conditions: read-out: GI
[34] = test system: HL-60; experiment: Induction of cell cycle arrest in human HL60 cells assessed as accumulation at G0/G1 phase at 5 uM after 48 hrs by propidium iodide staining based flow cytometry (reference value: 42.9%); type: functional
[35] = test system: HL-60; experiment: Induction of cell cycle arrest in human HL60 cells assessed as accumulation at S phase at 10 uM after 48 hrs by propidium iodide staining based flow cytometry (reference value: 45%); type: functional

SMILES: COC(=O)C1(Cc2ccc(OC)cc2)CC(=O)OC1(C)c1ccccc1 (stereo not given)
- Activity [1]: 0.35%
- Activity [2]: 13.1%
- Activity [3]: Active
- Activity [4]: 37.65%
- Activity [5]: 40.7%
- Activity [6]: 2.2%
- Activity [7]: 61.45%
- Activity [8]: 36.3%
- Activity [9]: 46.4%
- Activity [10]: 25.6%
- Activity [11]: 1.65%
- Activity [12]: 19.5%
- Activity [13]: 53.35%
- Activity [14]: 0.9%
- Activity [15]: 50.55%
- Activity [16]: 24%
- inhibition of growth at 10 µM [17]: 82%
- Activity [18]: Active
- Activity [19]: 0.65%
- inhibition of growth at 10 µM [20]: 68%
- Activity [21]: 4.25%
- inhibition of growth at 10 µM [22]: 56%
- Activity [23]: inactive
- inhibition of growth at 10 µM [24]: 61%
- Activity [25]: 38.9%
- Activity [26]: 37.7%
- inhibition of growth at 10 µM [27]: 92%
- inhibition of growth at 10 µM [28]: 82%
- Activity [29]: 12.2%
- inhibition of growth at 10 µM [30]: 76%
- Activity [31]: 14.1%
- Activity [32]: 25.6%
- inhibition of growth at 10 µM [33]: 95%
- Activity [34]: 23.4%
- Activity [35]: 29.7%
